Assays:
Formosan termites = test: Foraging box bait matrix bioassay, NHA sodium salt (Example 1); format: in vivo, Coptotermes formosanus
Description: For bait matrices with a final concentrations of NHA sodium salt of either 250 ppm or 500 ppm, the following procedure was used. A total of 25 mg or 50 mg, respectively of the NHA sodium salt was weighed using a Mettler balance. The NHA sodium salt complex was placed into a 50 ml sterile screw cap conical tube (#62.547.004; Sarstedt, Newton, N.C.) and dissolved with 40 ml nutritive solution described in Example 2 of U.S. patent application Ser. No. 09/294,499 filed Apr. 20, 1999, hereby incorporated by reference. Under a laminar flow hood, this product was mixed with 27 ml more of sterile nutritional supplement in a 250 ml sterile glass bottle (prepared as reported by M. G. Rojas and J. A. Morales-Ramos, April 2001, “Bait matrix for delivery of chitin synthesis inhibitors to the Formosan subterranean termite [Isoptera: Rhinotermitidae],” J. Econ. Entomol. 94(2) :506-510) hereby incorporated by reference. The bottle was tightly closed with a screw cap and manually shaken for 2 minutes. The mixture was added to 33 g of sterile cellulose as reported by Rojas and Morales-Ramos (2001) supra. The mixture was manually homogenized using a stainless steel spatula. To encase the bait matrix, tubes made of fibrous casing material (#124B; L.E.M. Products, Inc., Miamitown, Ohio) were cut into 150 mm long portions as reported by Rojas and Morales-Ramos (2001) supra. Fifty grams of bait matrix containing NHA sodium salt was compacted into one end of the inlet tube, and the open end and of the inlet tube was closed with a rubber band. The bait casing was placed inside of the foraging box adjacent to a 10 g piece of pine wood, taking care that it was partially covered with sand. Control bait matrix was prepared minus NHA, and presented in the same way as the treatment matrix to Formosan termites taken from three different colonies, with two boxes per locality totaling six boxes of 2500 termites per treatment. (Rojas and Morales-Ramos [2001] supra). All the experimental boxes were maintained under dark conditions at 27±1° C., and 90±2% relative humidity. Observations were done every 72 hours until all the termites died. The time to reach 100% mortality was measured and recorded. Mean comparisons among treatments and control were conducted.

[1] = system: Formosan subterranean termite; test: Field test of NHA pressure treated aspen wood in bait stations, New Orleans; format: in vivo, Coptotermes formosanus
From the text: NHA as a wood preservative has been extensively studied (F. Green III, T. A. Kuster, L. Ferge, and T. L. Highley, 1997. Protection of southern pine from fungal decay and termite damage with N,N-Naphthaloylhydroxylamine. Inter. Biodeter. and Biodeg. 39(2-3):103-111; D. M. Crawford and F. Green III, 1999. Protection of southern pine using N,N-Naphthaloylhydroxylamine: Field tests, soft-rot cellars and aquatic bioassay leach testing. Internat. Res. Group on Wood Preserv. Doc. No: IRG/WP 99-30204). Monitoring termite activity in baiting systems is conducted by the use of wooden interceptors constructed from out of aspen, southern yellow pine, white or yellow poplar. In humid environments such as the Southeastern United States, a problem with degradations of such interceptors by fungi frequently occurs. We have noticed that low concentrations of NHA from 200 to 1000 ppm is acceptable to retard fungal growth without presenting any deleterious effect in the termites when incorporated into wooden materials. For bait efficacy, when the chemical is impregnated on pieces of wood the concentration that is retained varies as well as the efficacy. […]

In the case of `O=C1c2cccc3cccc(c23)C(=O)N1O` [NHA, N-hydroxynaphthalimide], the “acceptability of the bait” value (Formosan termites; NHA >500 ppm) is reported as “reduced”, the “time some termite colonies required to start feeding on the bait” value (Formosan termites; NHA >500 ppm) is reported as “more than 8 hours” and the “time to mortality of a 2,500-worker colony” value (Formosan termites; depending on the health and age of the colony) is reported as “about 3 weeks”. The “NHA concentration at which consumption is almost non existent” value (Formosan termites; in vivo) was “above 20,000 ppm”, the “NHA concentration at which the bait becomes unpalatable” value (Formosan termites; in vivo) was “above 10,000 ppm” and the “optimal NHA concentration after field testing” value [1] was 500 ppm.

Source: patent USRE44543E1, “Naphthalenic compounds as termite bait toxicants” (priority 2002, dated 2013)
